Oc1ccc(/C=C/c2cc(O)cc(O)c2)cc1
solubility (mole fraction)
Details	288.15 K	293.15 K	298.15 K	303.15 K	308.15 K	313.15 K
in transcutol	0.148	0.15	0.153	0.156	0.159	0.161
in water	1.29e-06	1.91e-06	2.78e-06	4e-06	5.74e-06	8.03e-06
